Results: article PMC1940322, “The Effect of PPARα, PPARδ, PPARγ, and PPARpan Agonists on Body Weight, Body Mass, and Serum Lipid Profiles in Diet-Induced Obese AKR/J Mice” (PPAR Research, 2007)
Several values for one entry are separate records, joined by “and”; a condition that tells them apart may be missing. Identical values can stand only once.

Assays:
murine PPARα = biological target: T1, murine PPARα (Mus musculus, UniProt P23204); test: PPAR-GAL4 transient transfection transactivation assay (SPAP reporter) in CV-1 cells, PPARα; type: cell-based; conditions: for EC50: CV-1 cells, GAL4 chimera, read-out: mPPARα, murine receptor activation EC50; for mPPARα %Max: maximal activation vs reference comparator
T1 construct: expressed in transfected cells; host or cells: CV-1 cells
T1 sequence (P23204 239-466 limits assumed): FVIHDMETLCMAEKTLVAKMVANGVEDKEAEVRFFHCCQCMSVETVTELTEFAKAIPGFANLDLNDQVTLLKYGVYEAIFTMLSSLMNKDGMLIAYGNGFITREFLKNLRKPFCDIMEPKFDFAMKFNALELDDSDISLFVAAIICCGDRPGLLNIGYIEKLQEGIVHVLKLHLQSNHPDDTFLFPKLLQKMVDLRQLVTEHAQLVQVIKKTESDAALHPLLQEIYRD
Experimental: The functional potency of selected ligands was evaluated using a transient transfection assay in CV-1 cells. The ligand binding domains for murine PPARα, PPARδ, and PPARγ were fused to the yeast transcription factor GAL4 DNA binding domain as a chimera. CV-1 cells were propagated and transiently transfected with expression vectors for the respective PPAR chimera as previously described. Test compounds were compared to reference comparators that give maximum responses in this assay. Compounds which produced an activation of at 70% or greater, compared to a positive control, were considered full agonists.

[1] = system: diet-induced obese (DIO) AKR/J mouse; test: Body weight, body composition (qMR) and liver weight in diet-induced obese AKR/J mice; type: in vivo; conditions: for BW day 28 / effect on FM (in words) / effect on BW (in words) / Fat mass day 28 / Lean mass day 28 / Liver weight / effect on LM (in words) / increase in liver weight: 28 days; for effect on FM (in words) / effect on LM (in words): doses as in methods; for BW day 0: baseline before treatment; for effect on BW (in words): oral, GW9578 1, GW0742 30, GW7845 3, RIM 10 and 30 mg/kg, PPARpan agonists; for Fat mass day 28 / Lean mass day 28: qMR; for Liver weight: terminal collection; for increase in liver weight: PPARα agonist 1 mg/kg or PPARδ agonist 30 mg/kg alone
Experimental: The effects of monotherapy with selective PPAR agonists, combination therapy with PPARα and PPARδ, and treatment with PPARpan agonists were evaluated in four experiments in diet-induced obese (DIO) AKR/J mouse. The AKR/J mouse is a polyoma-susceptible strain originally utilized to study accelerated tumor development. This strain becomes obese and hyperinsulemic when fed a high fat diet. Age-matched, male AKR/J mice were allowed ad libitum access to Research Diet D12331 (Research Diet, Brunswick, NJ) at the Jackson Laboratories (Bar Harbor, ME) beginning at 6 weeks of age. The diet has an energy density of 5.56 kcal/g (58% kcal from fat; 26% kcal from carbohydrates, and 16% kcal from protein). The animals were allowed to become obese, achieving BW >40 grams before shipping to GlaxoSmithKline laboratory animal facility at 13 weeks of age. The mice were housed 4 per cage in standard shoebox cages and were fed the high fat diet until they reached approximately 50 grams. Age-matched lean control animals obtained from Jackson Laboratories were fed a diet of normal chow (3.04 kcal/g energy density, 12% kcal from fat, LabDiet 5001, St. Louis, MO) and used for comparison.
At the beginning of each study, the animals were weighed and body composition obtained using an EchoMRI-100 quantitative magnetic resonance (qMR, EchoMRI, Houston, TX) whole body composition analyzer. […] 16 lean control mice on standard chow were used as reference. All mice were dosed orally with vehicle (0.5% methylcellulose and 0.1% Tween 80, 10 mL/kg) for six days prior to the beginning of dosing for acclimation to handling and treatment before drug treatment was initiated.
In each experiment, BW of each animal was measured and recorded three times weekly throughout the treatment period. Body mass was obtained weekly on days 0, 7, 13, 20, and 27 of treatment. The effects of selective PPARα, δ, and γ agonists on food consumption were also assessed. Food consumption is expressed as total energy consumed (kcal) over a 24-period and as cumulative consumption over the course of the experiment.
On the final day of each experiment, a terminal blood sample (800–1000 μL) was obtained via cardiac puncture under isoflurane anesthesia. Whole blood was placed in a Terumo Capiject blood collection tube (Terumo Medical Corp., Elkton, Md, USA), allowed to sit at room temperature for 20 minutes then centrifuged to obtain serum. Serum levels of glucose, triglycerides, glycerol, nonesterified fatty acids, total cholesterol, the high-density lipoprotein cholesterol, and β-hydroxybutyrate were determined in all mice using an Olympus AU640 clinical chemistry immuno-analyzer (Olympus America Inc., Melville, NY, USA). In addition, liver weights were obtained following the terminal blood sample on the final day of the study and samples were used to determine liver fatty acid oxidation activity.
Experiment 1 was designed to study the effects of a selective PPARα agonist and PPARδ agonist as mono and combination therapy. 48 mice were sorted into 6 groups and blocked such that initial BW and body composition were not different between groups. […] Two additional groups of mice were dosed for the first 14 days with either a PPARα agonist or a PPARδ agonist alone. At day 15, the PPARδ agonist was added to the treatment regimen of animals dosed with PPARα, and the PPARα agonist was added to the dosing material of animals previously dosed with PPARδ alone. The sixth group was dosed with both the PPARα and PPARδ agonists for the entire 28-day period. BW and food consumption were assessed 3 times per week and body composition was measured weekly.
In Experiment 2, 32 mice were sorted into 4 groups (n = 8/group) and dosed with vehicle and a selective PPARγ agonist (GW7845, 3 mg/kg) for 28 days. Rimonabant (RIM, 10 or 30 mg/kg, q.d.), a CB1 receptor antagonist, was used as a positive control for weight loss. […]

Row | Compound | EC50 (murine PPARα) | mPPARα %Max (murine PPARα) | effect on FM (in words) [1] | effect on BW (in words) [1] | effect on LM (in words) [1] | increase in liver weight [1] | other results
1 | COC(=O)c1ccccc1N[C@@H](Cc1ccc(OCCc2nc(-c3ccccc3)oc2C)cc1)C(=O)O [GW7845] | 10.8 µM | 30% | significant increase in FM | steady and consistent increase in BW |  |  | BW day 28 ([1]; 3 mg/kg oral): 54.6 ± 1.7 grams; BW day 0 ([1]; group dosed 3 mg/kg oral): 50.9 ± 1.2 grams; Fat mass day 28 ([1]; 3 mg/kg oral): 23.5 ± 1.3 grams; Lean mass day 28 ([1]; 3 mg/kg oral): 28.7 ± 0.6 grams; Liver weight ([1]; 3 mg/kg oral): 2.0 ± 0.1 grams
2 | CCCCCCCN(CCc1ccc(SC(C)(C)C(=O)O)cc1)C(=O)Nc1ccc(F)cc1F [GW9578] | 0.008 µM and 0.0081 µM | 95% | slight decrease in FM | neither compound induced a sustained decrease in BW | LM was unaffected | ~1 gram | selectivity for PPARα over PPARγ and PPARδ (murine PPARα; murine receptors): > 250 fold; BW day 28 ([1]; 1 mg/kg oral): 51.3 ± 1.6 grams; BW day 0 ([1]; group dosed 1 mg/kg oral): 52.1 ± 1.1 grams; Fat mass day 28 ([1]; 1 mg/kg oral): 18.4 ± 0.9 grams; Lean mass day 28 ([1]; 1 mg/kg oral): 30.9 ± 0.8 grams; Liver weight ([1]; 1 mg/kg oral): 2.6 ± 0.1 grams
3 | Cc1cc(SCc2sc(-c3ccc(C(F)(F)F)c(F)c3)nc2C)ccc1OCC(=O)O [GW0742] | 8.81 µM | 55% | slight decrease in FM | neither compound induced a sustained decrease in BW | LM was unaffected | ~1 gram | BW day 28 ([1]; 30 mg/kg oral): 50.2 ± 1.2 grams; BW day 0 ([1]; group dosed 30 mg/kg oral): 51.6 ± 1.1 grams; Fat mass day 28 ([1]; 30 mg/kg oral): 18.4 ± 0.7 grams; Lean mass day 28 ([1]; 30 mg/kg oral): 29.7 ± 0.7 grams; Liver weight ([1]; 30 mg/kg oral): 3.2 ± 0.1 grams
